Measured values reported in patent US7300946B2, “N-(substituted arylmethyl)-4-(disubstituted methyl) piperidines and pyridines” (Bayer CropScience AG, priority 2002, dated 2007).

Test system: tobacco budworm (Heliothis virescens [Fabricius])
Assay: surface-treated diet test against the tobacco budworm
Assay type: in vivo
Conditions: tobacco budworm second instar larvae, surface-treated diet, 0.25 millimoles of candidate insecticide on the surface of the diet, five-day exposure; for Percent Mortality: compared to total number of insects infested; for Percent Growth Inhibition: inhibition of insect weight relative to untreated controls
Outline: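 Wheat germ artificial diet surface-treated with 40 µL of 50 mM DMSO stock diluted 1:7 in 1:1 water/acetone (0.25 millimolar on diet), or sub-multiples for rate tests. One second-instar larva per well, 25° C, 60% RH, 5 days; percent weight inhibition vs DMSO controls and percent mortality.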

SMILES	Percent Mortality	Percent Growth Inhibition
COc1ccc(C(=O)Nc2ccc(CN3CCC(C(OC(=O)Nc4cc(F)cc(F)c4)c4ccc(C(F)(F)F)cc4)CC3)cc2)cc1 (centres unmarked) [Compound 554]	0%	99%
O=C(Nc1ccc(F)cc1)OC(c1ccc(C(F)(F)F)cc1)C1CCN(Cc2ccc(-n3cccn3)cc2)CC1 (centres unmarked) [Compound 555]	33%	100%
O=C(Nc1cc(F)cc(F)c1)OC(c1ccc(C(F)(F)F)cc1)C1CCN(Cc2ccc(-n3cccn3)cc2)CC1 (centres unmarked) [Compound 556]	100%	100%
O=C(Nc1ccc(F)cc1)OC(c1ccc(C(F)(F)F)cc1)C1CCN(Cc2ccc(-n3cncn3)cc2)CC1 (centres unmarked) [Compound 557]	0%	86%
O=C(Nc1cc(F)cc(F)c1)OC(c1ccc(C(F)(F)F)cc1)C1CCN(Cc2ccc(-n3cncn3)cc2)CC1 (centres unmarked) [Compound 558]	17%	99%
O=C(Nc1ccc(F)cc1)OC(c1ccc(C(F)(F)F)cc1)C1CCN(Cc2ccc(-c3csnn3)cc2)CC1 (centres unmarked) [Compound 559]	17%	97%
O=C(Nc1cc(F)cc(F)c1)OC(c1ccc(C(F)(F)F)cc1)C1CCN(Cc2ccc(-c3csnn3)cc2)CC1 (centres unmarked) [Compound 560]	33%	96%
O=C(Nc1ccc(Cl)cc1)OC(c1ccc(C(F)(F)F)cc1)C1CCN(Cc2ccc(Oc3nsnc3Cl)cc2)CC1 (centres unmarked) [Compound 561]	50%	100%
O=C(Nc1cc(F)cc(F)c1)OC(c1ccc(C(F)(F)F)cc1)C1CCN(Cc2ccc(NC3=NCCO3)cc2)CC1 (centres unmarked) [Compound 563]	0%	96%
CCn1nnc(-c2ccc(CN3CCC(C(OC(=O)Nc4ccc(Cl)cc4)c4ccccc4)CC3)cc2)n1 (centres unmarked) [Compound 564]	100%	100%
CCn1nnc(-c2ccc(CN3CCC(C(OC(=O)Nc4ccc(C(F)(F)F)cc4)c4ccccc4)CC3)cc2)n1 (centres unmarked) [Compound 565]	100%	100%
CCn1nnc(-c2ccc(CN3CCC(C(OC(=O)Nc4cc(F)cc(C(F)(F)F)c4)c4ccccc4)CC3)cc2)n1 (centres unmarked) [Compound 566]	100%	100%
CCn1nnc(-c2ccc(CN3CCC(C(OC(=O)Nc4ccc(Cl)cc4)c4ccccc4Cl)CC3)cc2)n1 (centres unmarked) [Compound 567]	100%	100%
CCn1nnc(-c2ccc(CN3CCC(C(OC(=O)Nc4ccc(Cl)c(Cl)c4)c4ccccc4Cl)CC3)cc2)n1 (centres unmarked) [Compound 568]	100%	100%
CCn1nnc(-c2ccc(CN3CCC(C(OC(=O)Nc4ccc(F)c(F)c4)c4ccccc4Cl)CC3)cc2)n1 (centres unmarked) [Compound 569]	100%	100%
CCn1nnc(-c2ccc(CN3CCC(C(OC(=O)Nc4cc(F)cc(F)c4)c4ccccc4Cl)CC3)cc2)n1 (centres unmarked) [Compound 570]	100%	100%
CCn1nnc(-c2ccc(CN3CCC(C(OC(=O)Nc4ccc(C(F)(F)F)cc4)c4ccccc4Cl)CC3)cc2)n1 (centres unmarked) [Compound 571]	100%	100%
CCn1nnc(-c2ccc(CN3CCC(C(OC(=O)Nc4ccc(Cl)cc4)c4ccc(Cl)c(Cl)c4)CC3)cc2)n1 (centres unmarked) [Compound 572]	100%	100%
CCn1nnc(-c2ccc(CN3CCC(C(OC(=O)Nc4ccc(Cl)c(Cl)c4)c4ccc(Cl)c(Cl)c4)CC3)cc2)n1 (centres unmarked) [Compound 573]	100%	100%

SMILES	Percent Mortality	Percent Growth Inhibition
CCn1nnc(-c2ccc(CN3CCC(C(OC(=O)Nc4ccc(F)c(F)c4)c4ccc(Cl)c(Cl)c4)CC3)cc2)n1 (centres unmarked) [Compound 574]	100%	100%
CCn1nnc(-c2ccc(CN3CCC(C(OC(=O)Nc4cc(F)cc(F)c4)c4ccc(Cl)c(Cl)c4)CC3)cc2)n1 (centres unmarked) [Compound 575]	100%	100%
CCn1nnc(-c2ccc(CN3CCC(C(OC(=O)Nc4ccc(C(F)(F)F)cc4)c4ccc(Cl)c(Cl)c4)CC3)cc2)n1 (centres unmarked) [Compound 576]	100%	100%
CCn1nnc(-c2ccc(CN3CCC(C(OC(=O)Nc4ccc(Cl)cc4)c4cc(Cl)cc(Cl)c4)CC3)cc2)n1 (centres unmarked) [Compound 577]	100%	100%
CCn1nnc(-c2ccc(CN3CCC(C(OC(=O)Nc4ccc(Cl)c(Cl)c4)c4cc(Cl)cc(Cl)c4)CC3)cc2)n1 (centres unmarked) [Compound 578]	100%	100%
CCn1nnc(-c2ccc(CN3CCC(C(OC(=O)Nc4ccc(F)c(F)c4)c4cc(Cl)cc(Cl)c4)CC3)cc2)n1 (centres unmarked) [Compound 579]	100%	100%
CCn1nnc(-c2ccc(CN3CCC(C(OC(=O)Nc4cc(F)cc(F)c4)c4cc(Cl)cc(Cl)c4)CC3)cc2)n1 (centres unmarked) [Compound 580]	100%	100%
CCn1nnc(-c2ccc(CN3CCC(C(OC(=O)Nc4ccc(C(F)(F)F)cc4)c4cc(Cl)cc(Cl)c4)CC3)cc2)n1 (centres unmarked) [Compound 581]	100%	100%
CCn1nnc(-c2ccc(CN3CCC(C(OC(=O)Nc4ccc(Cl)cc4)c4cccc(F)c4)CC3)cc2)n1 (centres unmarked) [Compound 582]	100%	100%
CCn1nnc(-c2ccc(CN3CCC(C(OC(=O)Nc4ccc(Cl)c(Cl)c4)c4cccc(F)c4)CC3)cc2)n1 (centres unmarked) [Compound 583]	100%	100%
CCn1nnc(-c2ccc(CN3CCC(C(OC(=O)Nc4ccc(F)c(F)c4)c4cccc(F)c4)CC3)cc2)n1 (centres unmarked) [Compound 584]	100%	100%
CCn1nnc(-c2ccc(CN3CCC(C(OC(=O)Nc4cc(F)cc(F)c4)c4cccc(F)c4)CC3)cc2)n1 (centres unmarked) [Compound 585]	100%	100%
CCn1nnc(-c2ccc(CN3CCC(C(OC(=O)Nc4cccc(C(F)(F)F)c4)c4cccc(F)c4)CC3)cc2)n1 (centres unmarked) [Compound 586]	100%	100%
CCn1nnc(-c2ccc(CN3CCC(C(OC(=O)Nc4ccc(C(F)(F)F)cc4)c4cccc(F)c4)CC3)cc2)n1 (centres unmarked) [Compound 587]	100%	100%
CCn1nnc(-c2ccc(CN3CCC(C(OC(=O)Nc4ccc(Cl)cc4)c4ccc(F)c(F)c4)CC3)cc2)n1 (centres unmarked) [Compound 588]	100%	100%
CCn1nnc(-c2ccc(CN3CCC(C(OC(=O)Nc4cc(F)cc(F)c4)c4ccc(F)c(F)c4)CC3)cc2)n1 (centres unmarked) [Compound 589]	100%	100%
CCn1nnc(-c2ccc(CN3CCC(C(OC(=O)Nc4ccc(Cl)cc4)c4cc(F)cc(F)c4)CC3)cc2)n1 (centres unmarked) [Compound 590]	100%	100%
CCn1nnc(-c2ccc(CN3CCC(C(OC(=O)Nc4ccc(Cl)c(Cl)c4)c4cc(F)cc(F)c4)CC3)cc2)n1 (centres unmarked) [Compound 591]	100%	100%
